According to patent publication EP4455667B1, “DEVICE FOR DETECTING MOLECULES” (Viscera Technologies Ltd, priority 2023, dated 2024):
≈ marks a conversion by molar mass, not a printed value.

What was measured:
avidin = avidin (Gallus gallus, UniProt P02701); details: association constant from literature (Hermanson); cited from earlier work
anti-caffeine antibody [1] = system: anti-caffeine antibody
Procedure: (§1) A 96-well ELISA plate was coated with anti-caffeine antibody (50 µL, 6 µg/mL, in PBS buffer, pH 7.4) by incubating the plate for 1 hour at RT. The plate was blocked with 2% (w/v) BSA in PBS with 0.05% (v/v) Tween-20, pH 7.4, for 2 hours at RT. BSA-biotin-caffeine conjugate (50 µL) at different concentrations were added to the plate and incubated for 1 hour at RT. HRP-labelled avidin (50 µL, 1:5000 dilution in blocking buffer) was added and the plate was incubated for 1 hour in the dark at RT. After thorough washing of the plate, the colour was developed by adding 3,3',5,5'-tetramethylbenzidine (TMB) liquid substrate system (50 µL). The reaction was stopped by the addition of 1 M H2SO4 (50 µL) and the absorbance at 450 nm was recorded.
(§2) Same general protocol as direct ELISA. Plate was coated with anti-caffeine antibody (50 µL, 6 µg/mL, in PBS buffer, pH 7.4) and blocked with 2% (w/v) BSA in PBS with 0.05% (v/v) Tween-20, pH 7.4. BSA-biotin-caffeine conjugate (25 µL, 40 mg/mL) was mixed with caffeine (25 µL) at different concentrations of the latter, added to the plate and incubated for 1 hour at RT. HRP-labelled avidin (50 µL, 1:5000 dilution) was added and the colour was developed by adding TMB liquid substrate system (50 µL). The reaction was stopped by the addition of 1 M H2SO4 (50 µL) and the absorbance at 450 nm was recorded.
(§3) The same ELISA format was used to test the competition of the BSA-biotin-caffeine conjugate and free caffeine for binding to the anti-caffeine antibody coated on the wells. A fixed amount of BSA-biotin-caffeine conjugate (20 µg/mL) was used and the concentration of free caffeine was varied.

anti-caffeine antibody [2] = test: Modified competitive lateral flow assay for caffeine with two test lines; type: binding, mouse
Procedure: The LFA was assembled using a nitrocellulose membrane attached to a plastic backing card. Anti-caffeine antibody and avidin were immobilised at test lines 1 and 2, respectively, in the detection zone. […] The membrane was dried at RT for 2 hours. The wick was attached to the membrane (2 mm overlap) and the plastic card was cut into strips (5 mm x 60 mm). Glass fibre conjugate pads were soaked in 30% (w/v) sucrose in Milli-Q water and dried in an oven at 37°C. […] The conjugate pad was attached to the membrane and the prepared strips were kept in a desiccator until use.
Different concentrations of caffeine in 2% (w/v) BSA were prepared in respective wells of a low-binding 96-well microplate. The test strips were placed into each well vertically for 3 min, after which they were removed and left to dry. Images of the test strips were taken and analysed by ImageJ software. The grey level of the pixels in each test line was measured and subtracted from the background.
The effects of applying different concentrations of caffeine to the LFA were investigated to determine the working range and sensitivity that can be achieved for caffeine detection. The LFA test strips were prepared according to the design of the assay shown in Figure 3 and run using different concentrations of caffeine ranging from 1 ng/mL to 100 µg/mL. The optimised running buffer included glycerol as an agent to regulate wicking rate, and BSA and Tween-20 as blocking agents to reduce non-specific binding.
As well as visual inspection, the signal intensity of the test lines was analysed using ImageJ software. The signal intensities of test lines 1 and 2 at different caffeine concentrations were plotted in a semi-log graph as shown in Figure 11 (results were measured in triplicates). […] Table 1 - Semi-quantitative analysis of caffeine concentration based on the ratio between the signal intensities of test lines 1 and 2.

anti-caffeine antibody [3] = test: Competitive ELISA (free caffeine vs caffeine conjugate)
Procedure: as §1, §2, §3

[4] = system: anti-3-Nitrotyrosine antibody; test: Lateral flow assay for NHPA in synthetic urine; type: binding
Procedure: The LFA was assembled using a nitrocellulose membrane attached to a plastic backing card (Figure 13). An anti-3-Nitrotyrosine antibody line was printed at 1mg/mL concentration, the line consisted of 20 lines, each with 25 µm width, using 0.1 µL antibody solution/cm/line. A streptavidin line was printed at 1mg/mL concentration and consisted of 10 lines, each with 50 µm width, using 0.1 µL streptavidin solution/cm/line. The membrane was sealed in a foil bag with desiccant silica gel sachets and stored in the fridge until used.
On the test day the wicking pad (5 x 17 mm) was attached to the membrane (2 mm overlap) and the plastic card was cut into strips (5 mm width). Glass fibre conjugate pads (5 x 7 mm) were soaked in AuNP-BSA-biotin-NHPA conjugate (0.5 OD) and dried in a desiccator for 2 hours. The conjugate pad was then attached to the membrane (2mm overlap). […]
Different concentrations of NHPA in synthetic urine (200 µL) were prepared in respective wells of a low-binding 96-well microplate. […] The images of the test strips (Figure 14) were analysed by ImageJ software. […] The grey level of the pixels in each test line was measured and subtracted from the background to calculate each line intensity and its dependence on the NHPA concentration (Figure 15b).

[5] = strips kept in a desiccator for seven days at room temperature

Sequence of avidin (P02701 25-152, species assumed): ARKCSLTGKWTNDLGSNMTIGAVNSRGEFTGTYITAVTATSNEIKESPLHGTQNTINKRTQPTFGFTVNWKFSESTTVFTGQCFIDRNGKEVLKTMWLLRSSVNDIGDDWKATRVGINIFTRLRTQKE

## O=C(O)CCCC[C@@H]1SC[C@@H]2NC(=O)N[C@@H]21 [biotin]
avidin
  binding affinity for avidin: 1.3e+15 M⁻¹

## O=C(O)c1ccccc1N=Nc1ccc(O)cc1 [HABA, 4'-hydroxyazobenzene-2-carboxylic acid]
avidin
  binding affinity for avidin: 6e+06 M⁻¹

## Cn1c(=O)c2c(ncn2C)n(C)c1=O [caffeine]
anti-caffeine antibody [1]
  IC50: 7 ng/mL (≈ 0.036 µM)
anti-caffeine antibody [2]; anti-caffeine antibody line, signal intensity by ImageJ, triplicates, fresh strips
  IC50 value of test line 1: 5 ng/mL
anti-caffeine antibody [2]; avidin line, signal intensity by ImageJ, triplicates, fresh strips
  IC50 value of test line 2: 8 ng/mL
anti-caffeine antibody [2]; [5]
  IC50 value of test line 1: 3 ng/mL
  IC50 value of test line 2: 11 ng/mL
anti-caffeine antibody [2]; test line 1 only (no colour developed), no calibration
  visual detection limit: 10000 ng/mL
anti-caffeine antibody [2]; test line 2, strips stored seven days at room temperature
  visual detection limit: 10 ng/mL
anti-caffeine antibody [2]; with the second test line (test line 2), fresh strips
  visual detection limit: 10 ng/mL
anti-caffeine antibody [3]; BSA-biotin-caffeine conjugate (20 µg/mL) as competitor
  detection limit, determined by the concentration of caffeine that results in 10% inhibition: 0.03 ng/mL
anti-caffeine antibody [3]; fixed BSA-biotin-caffeine conjugate (20 µg/mL), free caffeine varied, absorbance at 450 nm, dose response fit
  IC50 value: 1 ng/mL (≈ 0.00515 µM)

## O=C(O)Cc1ccc(O)c([N+](=O)[O-])c1 [NHPA, 3-nitro-4-hydroxyphenylacetic acid]
[4]; 250 ng/ml of NHPA in urine samples (synthetic urine)
  decrease of the antibody line's intensity: over 90%
[4]; synthetic urine, also printed as 250 ± 80 ng/ml
  threshold of the assay for NHPA detection in urine: 170 to 330 ng/mL
